Source: patent US10472336B2, “Modulators of indoleamine 2,3-dioxygenase” (GlaxoSmithKline Intellectual Property (No.2) Limited, priority 2015, dated 2019)
Counter-ions that a name gives are not always drawn.

Columns and labels:
[1] = molecular target: T1, indoleamine 2, 3-dioxygenase (IDO1) (Homo sapiens, UniProt P14902); assay: PBMC IDOi assay (kynurenine detection by mass spectrometry); format: cell-based; conditions: IFN-γ and LPS stimulated human PBMC, 2 days
Experimental: (§1) Compounds of the present invention were tested via high-throughput cellular assays utilizing detection of kynurenine via mass spectrometry and cytotoxicity as end-points. For the mass spectrometry and cytotoxicity assays, human peripheral blood mononuclear cells (PBMC) (PB003F; AllCells®, Alameda, Calif.) were stimulated with human interferon-γ (IFN-γ) (Sigma-Aldrich Corporation, St. Louis, Mo.) and lipopolysaccharide from Salmonella minnesota (LPS) (Invivogen, San Diego, Calif.) to induce the expression of indoleamine 2, 3-dioxygenase (IDO1). Compounds with IDO1 inhibitory properties decreased the amount of kynurenine produced by the cells via the tryptophan catabolic pathway. Cellular toxicity due to the effect of compound treatment was measured using CellTiter-Glo® reagent (CTG) (Promega Corporation, Madison, Wis.), which is based on luminescent detection of ATP, an indicator of metabolically active cells.
(§2) In preparation for the assays, test compounds were serially diluted 3-fold in DMSO from a typical top concentration of 5 mM and plated at 0.5 μL in 384-well, polystyrene, clear bottom, tissue culture treated plates with lids (Greiner Bio-One, Kremsmünster, Austria) to generate 11-point dose response curves. Low control wells (0% kynurenine or 100% cytotoxicity) contained either 0.5 μL of DMSO in the presence of unstimulated (−IFN-γ/−LPS) PBMCs for the mass spectrometry assay or 0.5 μL of DMSO in the absence of cells for the cytotoxicity assay, and high control wells (100% kynurenine or 0% cytotoxicity) contained 0.5 μL of DMSO in the presence of stimulated (+IFN-γ/+LPS) PBMCs for both the mass spectrometry and cytotoxicity assays.
Frozen stocks of PBMCs were washed and recovered in RPMI 1640 medium (Thermo Fisher Scientific, Inc., Waltham, Mass.) supplemented with 10% v/v heat-inactivated fetal bovine serum (FBS) (Thermo Fisher Scientific, Inc., Waltham, Mass.), and 1× penicillin-streptomycin antibiotic solution (Thermo Fisher Scientific, Inc., Waltham, Mass.). The cells were diluted to 1,000,000 cells/mL in the supplemented RPMI 1640 medium. 50 μL of either the cell suspension, for the mass spectrometry assay, or medium alone, for the cytotoxicity assay, were added to the low control wells, on the previously prepared 384-well compound plates, resulting in 50,000 cells/well or 0 cells/well respectively. IFN-γ and LPS were added to the remaining cell suspension at final concentrations of 100 ng/ml and 50 ng/ml respectively, and 50 μL of the stimulated cells were added to all remaining wells on the 384-well compound plates. The plates, with lids, were then placed in a 37° C., 5% CO2 humidified incubator for 2 days.
(§3) Following incubation, the 384-well plates were removed from the incubator and allowed to equilibrate to room temperature for 30 minutes. For the cytotoxicity assay, CellTiter-Glo® was prepared according to the manufacturer's instructions, and 40 μL were added to each plate well. After a twenty minute incubation at room temperature, luminescence was read on an EnVision® Multilabel Reader (PerkinElmer Inc., Waltham, Mass.). For the mass spectrometry assay, 10 μL of supernatant from each well of the compound-treated plates were added to 40 μL of acetonitrile, containing 10 μM of an internal standard for normalization, in 384-well, polypropylene, V-bottom plates (Greiner Bio-One, Kremsmünster, Austria) to extract the organic analytes. Following centrifugation at 2000 rpm for 10 minutes, 10 μL from each well of the acetonitrile extraction plates were added to 90 μL of sterile, distilled H2O in 384-well, polypropylene, V-bottom plates for analysis of kynurenine and the internal standard on the RapidFire 300 (Agilent Technologies, Santa Clara, Calif.) and 4000 QTRAP MS (SCIEX, Framingham, Mass.). MS data were integrated using Agilent Technologies' RapidFire Integrator software, and data were normalized for analysis as a ratio of kynurenine to the internal standard. […]

[2] = molecular target: T1, indoleamine 2, 3-dioxygenase (IDO1); assay: HeLa IDOi assay (kynurenine detection by mass spectrometry); format: cell-based; set-up: human epithelial HeLa cells (CCL-2; host or cells: HeLa cells stimulated with human IFN-γ; conditions: IFN-γ stimulated human epithelial HeLa cells, 2 days
Experimental: as §1, with “epithelial HeLa” for “peripheral blood mononuclear”, “(CCL-2; ATCC®, Manassas, Va.)” for “(PBMC) (PB003F; AllCells®, Alameda, Calif.)”, “Mo.)” for “Mo.) and lipopolysaccharide from Salmonella minnesota (LPS) (Invivogen, San Diego, Calif.)”
as §2, with “(−IFN-γ) HeLa cells” for “(−IFN-γ/−LPS) PBMCs”, “(+IFN-γ) HeLa cells” for “(+IFN-γ/+LPS) PBMCs”
Frozen stocks of HeLa cells were washed and recovered in DMEM high glucose medium with HEPES (Thermo Fisher Scientific, Inc., Waltham, Mass.) supplemented with 10% v/v certified fetal bovine serum (FBS) (Thermo Fisher Scientific, Inc., Waltham, Mass.), and 1× penicillin-streptomycin antibiotic solution (Thermo Fisher Scientific, Inc., Waltham, Mass.). The cells were diluted to 100,000 cells/mL in the supplemented DMEM medium. 50 μL of either the cell suspension, for the mass spectrometry assay, or medium alone, for the cytotoxicity assay, were added to the low control wells, on the previously prepared 384-well compound plates, resulting in 5,000 cells/well or 0 cells/well respectively. IFN-γ was added to the remaining cell suspension at a final concentration of 10 nM, and 50 μL of the stimulated cells were added to all remaining wells on the 384-well compound plates. The plates, with lids, were then placed in a 37° C., 5% CO2 humidified incubator for 2 days.
as §3, with “instructions, and 10 μL were” for “instructions, and 40 μL were”

T1 sequence (P14902 whole entry): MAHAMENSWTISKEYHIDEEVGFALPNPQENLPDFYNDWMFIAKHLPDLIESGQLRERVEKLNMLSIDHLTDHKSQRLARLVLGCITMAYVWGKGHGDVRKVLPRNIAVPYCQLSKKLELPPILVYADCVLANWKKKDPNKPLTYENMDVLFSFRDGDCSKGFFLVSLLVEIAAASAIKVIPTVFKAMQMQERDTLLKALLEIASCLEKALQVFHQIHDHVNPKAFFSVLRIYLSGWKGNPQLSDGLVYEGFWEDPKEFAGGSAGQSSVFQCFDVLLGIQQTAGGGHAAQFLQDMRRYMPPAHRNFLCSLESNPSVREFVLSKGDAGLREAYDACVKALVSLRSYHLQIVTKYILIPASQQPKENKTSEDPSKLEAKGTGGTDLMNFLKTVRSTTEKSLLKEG

SMILES: CC(C)CN(CC(C)C)c1ccc(C(C)CC(=O)O)cc1Nc1nc(Cl)ns1 (centres unmarked) [Example 25, 3-(3-((3-chloro-1,2,4-thiadiazol-5-yl)amino)-4-(diisobutylamino)phenyl)butanoic acid]
- EC50 [1]: 25.1 nM
- EC50 [2]: 31.6 nM

SMILES: CC(C)CN(c1ccc(C(C)CC(=O)O)cc1Nc1nnc(C(F)(F)F)s1)C1CCCCC1 (centres unmarked) [Example 29, 3-(4-(cyclohexyl(isobutyl)amino)-3-((5-(trifluoromethyl)-1,3,4-thiadiazol-2-yl)amino)phenyl)butanoic acid]
- EC50 [1]: 0.316 nM
- EC50 [2]: 3.16 nM

SMILES: CC(C)CN(CC(C)C)c1ccc(C(C)CC(=O)O)cc1Nc1nc(C(F)(F)F)ns1 (centres unmarked) [Example 34, 3-(4-(diisobutylamino)-3-((3-(trifluoromethyl)-1,2,4-thiadiazol-5-yl)amino)phenyl)butanoic acid]
- EC50 [1]: 5.01 nM
- EC50 [2]: 3.98 nM

SMILES: CC(C)CN(c1ccc([C@@H](C)CC(=O)O)cc1Nc1nc(C(F)(F)F)ns1)C1CCCCC1 [Example 37, (S)-3-(4-(cyclohexyl(isobutyl)amino)-3-((3-(trifluoromethyl)-1,2,4-thiadiazol-5-yl)amino)phenyl)butanoic acid]
- EC50 [1]: 1 nM
- EC50 [2]: 2 nM

SMILES: CC(C)CN(c1ccc([C@H](C)CC(=O)O)cc1Nc1nc(C(F)(F)F)ns1)C1CCCCC1 [Example 38, (R)-3-(4-(cyclohexyl(isobutyl)amino)-3-((3-(trifluoromethyl)-1,2,4-thiadiazol-5-yl)amino)phenyl)butanoic acid]
- EC50 [1]: 1 nM
- EC50 [2]: 3.98 nM

SMILES: CC(C)CN(c1ccc([C@@H](C)CC(=O)O)cc1Nc1nc(Cl)ns1)C1CCCCC1 [Example 39, (S)-3-(3-((3-chloro-1,2,4-thiadiazol-5-yl)amino)-4-(cyclohexyl(isobutyl)amino)phenyl)butanoic acid]
- EC50 [1]: 1.26 nM
- EC50 [2]: 12.6 nM

SMILES: CC(C)CN(c1ccc([C@H](C)CC(=O)O)cc1Nc1nc(Cl)ns1)C1CCCCC1 [Example 40, (R)-3-(3-((3-chloro-1,2,4-thiadiazol-5-yl)amino)-4-(cyclohexyl(isobutyl)amino)phenyl)butanoic acid]
- EC50 [1]: 0.631 nM
- EC50 [2]: 6.31 nM

SMILES: CC(C)CN(CC(C)C)c1ccc([C@@H](C)CC(=O)O)cc1Nc1nc(Cl)ns1 [Example 41, (S)-3-(3-((3-chloro-1,2,4-thiadiazol-5-yl)amino)-4-(diisobutylamino)phenyl)butanoic acid]
- EC50 [1]: 10 nM
- EC50 [2]: 63.1 nM

SMILES: CC(C)CN(CC(C)C)c1ccc([C@H](C)CC(=O)O)cc1Nc1nc(Cl)ns1 [Example 42, (R)-3-(3-((3-chloro-1,2,4-thiadiazol-5-yl)amino)-4-(diisobutylamino)phenyl)butanoic acid]
- EC50 [1]: 7.94 nM
- EC50 [2]: 39.8 nM

SMILES: Cc1nnc(Nc2cc(C(C)CC(=O)O)ccc2N(CC(C)C)CC(C)C)[nH]1 (centres unmarked) [Example 47, 3-(4-(diisobutylamino)-3-((5-methyl-4H-1,2,4-triazol-3-yl)amino)phenyl)butanoic acid]
- EC50 [1]: 200 nM
- EC50 [2]: 158 nM

SMILES: CC(C)CN(CC(C)C)c1ccc(C(C)CC(=O)O)cc1Nc1nnc(C2CC2)[nH]1 (centres unmarked) [Example 48, 3-(3-((5-cyclopropyl-4H-1,2,4-triazol-3-yl)amino)-4-(diisobutylamino)phenyl)butanoic acid]
- EC50 [1]: 25.1 nM
- EC50 [2]: 63.1 nM

SMILES: CC(C)CN(c1ccc([C@H](C)CC(=O)O)cc1Nc1nc(C(F)(F)F)cs1)C1CCCCC1 [Example 49, (R)-3-(4-(cyclohexyl(isobutyl)amino)-3-((4-(trifluoromethyl)thiazol-2-yl)amino)phenyl)butanoic acid]
- EC50 [1]: 0.794 nM
- EC50 [2]: 3.16 nM

SMILES: CC(C)CN(c1ccc([C@H](C)CC(=O)O)cc1Nc1nnc(C2CC2)[nH]1)C1CCCCC1 [Example 50, (R)-3-(4-(cyclohexyl(isobutyl)amino)-3-((5-cyclopropyl-4H-1,2,4-triazol-3-yl)amino)phenyl)butanoic acid]
- EC50 [1]: 2.51 nM
- EC50 [2]: 10 nM

SMILES: CC(C)CN(CC(C)C)c1ccc([C@@H](C)CC(=O)O)cc1Nc1nc(C(F)(F)F)ns1 [Example 53, (S)-3-(4-(diisobutylamino)-3-((3-(trifluoromethyl)-1,2,4-thiadiazol-5-yl)amino)phenyl)butanoic acid]
- EC50 [1]: 3.16 nM
- EC50 [2]: 10 nM

SMILES: CC(C)CN(CC(C)C)c1ccc([C@H](C)CC(=O)O)cc1Nc1nc(C(F)(F)F)ns1 [Example 54, (R)-3-(4-(diisobutylamino)-3-((3-(trifluoromethyl)-1,2,4-thiadiazol-5-yl)amino)phenyl)butanoic acid]
- EC50 [1]: 2 nM
- EC50 [2]: 6.31 nM

SMILES: CC(C)CN(CC(C)C)c1ccc(C(C)CC(=O)O)cc1Nc1nnc(C(F)(F)F)s1 (centres unmarked) [Example 55, 3-(4-(diisobutylamino)-3-((5-(trifluoromethyl)-1,3,4-thiadiazol-2-yl)amino)phenyl)butanoic acid, 2,2,2-trifluoroacetic acid salt]
- EC50 [1]: 0.631 nM
- EC50 [2]: 3.16 nM
